Structures are written as SMILES.

The test system of this assay is Leishmania donovani. The assay is described as follows: Antileishmanial activity against Leishmania donovani promastigotes. The format is functional, organism-based.

In the case of `CC1(C)[C@@H]2C[C@@]3(C)Oc4c(C=O)c(O)c(C=O)c(O)c4C[C@H]3C[C@@H]21`, the IC50 is, setting by setting: (read-out: IC50) 5.75 µM; (read-out: pIC50 (converted)) 5.75 µM.

Consider `CC(C)CC(=O)c1c(O)c2c(c(C(=O)CC(C)C)c1O)O[C@@]1(CO)[C@@H](C2)C[C@H]2C[C@@H]1C2(C)C`, for which the IC50 reads like this: (read-out: IC50) 6.93 µM; (read-out: pIC50 (converted)) 6.93 µM.

With `CC(C)CC(=O)c1c(O)c(C=O)c(O)c2c1O[C@@]1(C)[C@H](CC[C@H]3[C@@H]1C3(C)C)C2`, the IC50 by setting is: (read-out: IC50) 1.42 µM; (read-out: pIC50 (converted)) 1.42 µM.

As to `CC(C)CC(=O)c1c(O)c(C=O)c2c(c1O)CC[C@@]1(CC[C@H]3C[C@@H]1C3(C)C)O2` [EUGLOBAL G3], the IC50 is, setting by setting: (read-out: IC50) 1 µM; (read-out: pIC50 (converted)) 1.01 µM.

For the molecule `CC(=O)c1c(O)c(C=O)c2c(c1O)CC[C@@]1(O2)[C@@H]2CC[C@@H](C2)C1(C)C`, the IC50 (read-out: IC50) came to 1.25 µM and the IC50 (read-out: pIC50 (converted)) was 1.25 µM.

Take `CC(=O)c1c(O)c(C=O)c2c(c1O)CC[C@@]1(CC[C@H]3C[C@@H]1C3(C)C)O2`: the IC50 reads like this: (read-out: IC50) 4.65 µM; (read-out: pIC50 (converted)) 4.65 µM.

Take `CC(C)CC(=O)c1c(O)c(C=O)c(O)c2c1O[C@@]1(CCO)[C@@H](C2)C[C@H]2C[C@@H]1C2(C)C`: the IC50 by setting is: (read-out: IC50) 7.68 µM; (read-out: pIC50 (converted)) 7.69 µM.

Regarding `CC1(C)[C@H]2[C@@H]1CC[C@@H]1Cc3c(O)c(C=O)c(O)c(C=O)c3O[C@@]12C`, the IC50 runs as follows: (read-out: IC50) 5.17 µM; (read-out: pIC50 (converted)) 6.05 µM.

For `CC(C)CC(=O)c1c(O)c2c(c(C(=O)CC(C)C)c1O)O[C@@]1(C)[C@H](CC[C@H]3[C@@H]1C3(C)C)C2`, the IC50 (read-out: IC50) was more than 40 µg/mL.

With `CC1(C)[C@H]2C[C@@H]3Cc4c(O)c(C=O)c(O)c(C=O)c4O[C@]3(CO)[C@@H]1C2`, the IC50 (read-out: IC50) was more than 40 µg/mL.

Turning to `CC(=O)c1c(O)c(C=O)c(O)c2c1O[C@]1(CC2)[C@@H]2CC[C@@H](C2)C1(C)C`, the IC50 (read-out: IC50) was 4.47 µM and the IC50 (read-out: pIC50 (converted)) is 5.22 µM.

As for `CC1(C)[C@H]2CC[C@@]3(CCc4c(O)c(C=O)c(O)c(C=O)c4O3)[C@@H]1C2`, the IC50 reads like this: (read-out: IC50) 6.36 µM; (read-out: pIC50 (converted)) 6.35 µM.

Regarding `CC(C)CC(=O)c1c(O)c(C=O)c(O)c2c1O[C@@]1(CC2)CC[C@H]2C[C@@H]1C2(C)C` [EUGLOBAL G4], the IC50 was 3.1 µM (read-out: IC50) and 3.1 µM (read-out: pIC50 (converted)).

As to `CC(C)CC(=O)c1c(O)c(C=O)c2c(c1O)CC[C@@]1(O2)[C@@H]2CC[C@@H](C2)C1(C)C`, the IC50 by setting is: (read-out: IC50) 0.93 µM; (read-out: pIC50 (converted)) 0.931 µM.

Take `CC(C)CC(=O)c1c(O)c(C=O)c2c(c1O)C[C@H]1C[C@H]3[C@@H](C[C@@]1(C)O2)C3(C)C`: the IC50 is 0.73 µM (read-out: IC50) and 0.724 µM (read-out: pIC50 (converted)).

Regarding `CC(C)C[C@H]1C[C@@]2(CC[C@H]3C[C@@H]2C3(C)C)Oc2c(C=O)c(O)c(C=O)c(O)c21`, the IC50 was 5.17 µM (read-out: IC50) and 5.18 µM (read-out: pIC50 (converted)).

For `CC1(C)[C@H]2C[C@@H]3Cc4c(O)c(C=O)c(O)c(C=O)c4O[C@]3(CCO)[C@@H]1C2`, the IC50 (read-out: IC50) turned out to be 6.1 µM and the IC50 (read-out: pIC50 (converted)) was 6.11 µM.

For `CC(C)CC(=O)c1c(O)c2c(c(C(=O)CC(C)C)c1O)O[C@@]1(CCO)[C@@H](C2)C[C@H]2C[C@@H]1C2(C)C`, the IC50 (read-out: IC50) is more than 40 µg/mL.

Turning to `CC(C)CC(=O)c1c(O)c(C=O)c2c(c1O)C[C@H]1C[C@H]3C[C@H](C3(C)C)[C@@]1(CO)O2`, the IC50 by setting is: (read-out: IC50) 4.47 µM; (read-out: pIC50 (converted)) 4.48 µM.

`CC(C)CC(=O)c1c(O)c(C=O)c2c(c1O)C[C@H]1C[C@H]3C[C@H](C3(C)C)[C@@]1(CCO)O2`: the IC50 was 2.28 µM (read-out: IC50) and 2.28 µM (read-out: pIC50 (converted)).

In the case of `CC(C)CC(=O)c1c(O)c(C=O)c(O)c2c1O[C@]1(C)C[C@@H]3[C@H](C[C@@H]1C2)C3(C)C`, the IC50 (read-out: IC50) was found to be 1.6 µM and the IC50 (read-out: pIC50 (converted)) is 1.6 µM.

As to `CC(=O)c1c(O)c(C=O)c(O)c2c1O[C@@]1(CC2)CC[C@H]2C[C@@H]1C2(C)C`, the IC50 is 4.65 µM (read-out: IC50) and 4.65 µM (read-out: pIC50 (converted)).

As for `CC(C)CC(=O)c1c(O)c(C=O)c2c(c1O)C[C@H]1C[C@H]3C[C@H](C3(C)C)[C@@]1(C)O2` [EUGLOBAL G2], the IC50 by setting is: (read-out: IC50) 0.93 µM; (read-out: pIC50 (converted)) 0.931 µM.

For the molecule `CC(=O)c1c(O)c(C=O)c(O)c2c1O[C@@]1(C)[C@@H](C2)C[C@H]2C[C@@H]1C2(C)C`, the IC50 was 4.94 µM (read-out: IC50) and 4.93 µM (read-out: pIC50 (converted)).

Take `CC(C)CC(=O)c1c(O)c(C=O)c(O)c2c1O[C@]1(CC2)[C@@H]2CC[C@@H](C2)C1(C)C`: the IC50 was 4.07 µM (read-out: IC50) and 3.62 µM (read-out: pIC50 (converted)).

Regarding `CC1(C)[C@H]2C[C@@H]3Cc4c(O)c(C=O)c(O)c(C=O)c4O[C@]3(C)[C@@H]1C2`, the IC50 (read-out: IC50) is 7.26 µM and the IC50 (read-out: pIC50 (converted)) was 7.26 µM.

As for `CC(=O)c1c(O)c(C=O)c(O)c2c1O[C@]1(C)C[C@@H]3[C@H](C[C@@H]1C2)C3(C)C`, the IC50 is, setting by setting: (read-out: IC50) 4.07 µM; (read-out: pIC50 (converted)) 4.06 µM.

Consider `CC1(C)[C@H]2CC[C@H](C2)[C@]12CCc1c(O)c(C=O)c(O)c(C=O)c1O2`, for which the IC50 is 4.07 µM (read-out: IC50) and 4.24 µM (read-out: pIC50 (converted)).

For the molecule `CC(C)CC(=O)c1c(O)c(C=O)c2c(c1O)C[C@H]1CC[C@H]3[C@H](C3(C)C)[C@@]1(C)O2`, the IC50 is 0.62 µM (read-out: IC50) and 0.621 µM (read-out: pIC50 (converted)).

In the case of `CC(C)CC(=O)c1c(O)c2c(c(C(=O)CC(C)C)c1O)O[C@@]1(C)[C@@H](C2)C[C@H]2C[C@@H]1C2(C)C`, under “read-out: IC50”, the IC50 was more than 40 µg/mL.

On to `CC(C)CC(=O)c1c(O)c(C=O)c(O)c2c1O[C@@]1(CO)[C@@H](C2)C[C@H]2C[C@@H]1C2(C)C`, for which the IC50 reads like this: (read-out: IC50) 7.45 µM; (read-out: pIC50 (converted)) 7.45 µM.

Take `CC(C)CC(=O)c1c(O)c2c(c(C(=O)CC(C)C)c1O)O[C@]1(CC2)[C@@H]2CC[C@@H](C2)C1(C)C`: under “read-out: IC50”, the IC50 is more than 40 µg/mL.

On to `CC(=O)c1c(O)c(C=O)c2c(c1O)C[C@H]1C[C@H]3C[C@H](C3(C)C)[C@@]1(C)O2`, for which the IC50 was 2.73 µM (read-out: IC50) and 2.73 µM (read-out: pIC50 (converted)).

As to `CC(C)CC(=O)c1c(O)c(C=O)c(O)c2c1O[C@@]1(C)[C@@H](C2)C[C@H]2C[C@@H]1C2(C)C` [EUGLOBAL G1], the IC50 is, setting by setting: (read-out: IC50) 1.84 µM; (read-out: pIC50 (converted)) 1.84 µM.

Regarding `CC(C)C[C@@H]1C[C@@]2(CC[C@H]3C[C@@H]2C3(C)C)Oc2c(C=O)c(O)c(C=O)c(O)c21`, the IC50 runs as follows: (read-out: IC50) 4.14 µM; (read-out: pIC50 (converted)) 4.14 µM.

Turning to `CC(C)CC(=O)c1c(O)c2c(c(C(=O)CC(C)C)c1O)O[C@]1(C)C[C@@H]3[C@H](C[C@@H]1C2)C3(C)C`, the IC50 (read-out: IC50) was more than 40 µg/mL.

As for `CC(=O)c1c(O)c(C=O)c2c(c1O)C[C@H]1C[C@H]3[C@@H](C[C@@]1(C)O2)C3(C)C`, the IC50 (read-out: IC50) was 2.76 µM and the IC50 (read-out: pIC50 (converted)) was 2.76 µM.

Regarding `CC(C)CC(=O)c1c(O)c2c(c(C(=O)CC(C)C)c1O)O[C@@]1(CC2)CC[C@H]2C[C@@H]1C2(C)C`, the IC50 (read-out: IC50) was more than 40 µg/mL.

(Values after ChEMBL document CHEMBL1800040, “Quantitative structure-activity relationship study of phloroglucinol-terpene adducts as anti-leishmanial agents” (Bioorg Med Chem Lett, 2011).)
